Where two headings read alike, the source gives them in different places.
What was measured:
[1] = biological target: T1, purified recombinant human Aggrecanase-2 (Ag2t-Phe628-Strep) (Homo sapiens, UniProt Q9UNA0); experiment: In vitro fluorescence screen for Aggrecanase-2 inhibitors; assay type: biochemical; details: read-out: Agg 2 IC50
T1 construct: the form used is denoted as Ag2t-Phe628-Strep (MW=41,737)
T1 sequence (Q9UNA0 262-628): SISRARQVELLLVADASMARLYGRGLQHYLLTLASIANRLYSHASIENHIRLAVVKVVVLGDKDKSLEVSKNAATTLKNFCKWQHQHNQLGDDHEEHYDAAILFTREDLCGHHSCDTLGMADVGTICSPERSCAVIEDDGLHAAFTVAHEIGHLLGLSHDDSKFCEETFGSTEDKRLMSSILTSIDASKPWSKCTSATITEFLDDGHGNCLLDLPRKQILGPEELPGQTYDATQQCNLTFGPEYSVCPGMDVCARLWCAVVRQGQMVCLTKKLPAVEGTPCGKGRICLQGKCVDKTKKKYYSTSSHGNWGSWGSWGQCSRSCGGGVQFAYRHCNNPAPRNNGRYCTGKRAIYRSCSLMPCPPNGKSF

[2] = biological target: T2, recombinant human catalytic domain of MMP-13 (Homo sapiens, UniProt P45452); experiment: In vitro fluorescence assay of MMP-13 activity; assay type: biochemical
T2 construct: catalytic domain of MMP-13 (165 amino acids, residues 104-268, 19 kDa)

MMP-1 = biological target: T3, MMP-1 (Homo sapiens, UniProt P03956); experiment: MMP-1 of Table 1; assay type: biochemical; details: unit not given
T3 sequence (P03956 100-469): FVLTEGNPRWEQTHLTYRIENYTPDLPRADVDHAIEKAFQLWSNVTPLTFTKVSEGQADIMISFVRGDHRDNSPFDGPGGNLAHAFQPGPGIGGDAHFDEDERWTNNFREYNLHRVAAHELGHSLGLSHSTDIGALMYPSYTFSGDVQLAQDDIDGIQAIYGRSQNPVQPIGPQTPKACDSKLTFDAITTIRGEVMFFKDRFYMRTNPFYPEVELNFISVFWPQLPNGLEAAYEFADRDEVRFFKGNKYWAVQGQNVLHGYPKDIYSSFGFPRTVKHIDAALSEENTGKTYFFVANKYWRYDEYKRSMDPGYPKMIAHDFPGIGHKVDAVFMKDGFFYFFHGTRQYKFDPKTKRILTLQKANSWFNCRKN

[3] = biological target: T4, purified recombinant human Aggrecanase-1 (rAgg1) (Homo sapiens, UniProt O75173); experiment: In vitro fluorescence screen for Aggrecanase-1 inhibitors; assay type: biochemical; details: for IC50: read-out: Agg1 IC50; for Ki: enzyme not given, column follows Agg1 IC50, read-out: Ki
T4 sequence (O75173 213-837): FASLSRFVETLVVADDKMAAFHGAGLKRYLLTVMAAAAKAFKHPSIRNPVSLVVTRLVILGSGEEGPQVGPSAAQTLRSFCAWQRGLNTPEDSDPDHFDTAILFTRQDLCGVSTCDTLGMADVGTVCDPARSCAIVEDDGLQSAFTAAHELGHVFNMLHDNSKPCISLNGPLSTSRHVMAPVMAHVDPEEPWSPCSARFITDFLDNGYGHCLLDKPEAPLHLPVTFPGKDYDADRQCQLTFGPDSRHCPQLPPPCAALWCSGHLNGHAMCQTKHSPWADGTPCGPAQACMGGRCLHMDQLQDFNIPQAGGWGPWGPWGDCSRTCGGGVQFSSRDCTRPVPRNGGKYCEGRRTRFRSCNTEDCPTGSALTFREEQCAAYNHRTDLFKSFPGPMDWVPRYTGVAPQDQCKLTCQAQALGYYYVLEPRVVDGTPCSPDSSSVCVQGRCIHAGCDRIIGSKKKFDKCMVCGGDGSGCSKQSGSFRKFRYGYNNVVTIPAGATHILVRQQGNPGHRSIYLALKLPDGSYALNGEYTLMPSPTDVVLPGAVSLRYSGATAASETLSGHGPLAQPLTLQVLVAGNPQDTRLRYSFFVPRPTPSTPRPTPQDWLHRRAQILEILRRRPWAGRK

[4] = biological target: T5, recombinant human catalytic domain of MMP-14 (Homo sapiens, UniProt P50281); experiment: In vitro fluorescence assay of MMP-14 activity; assay type: biochemical; details: Table 1; unit inferred
T5 construct: 177 amino acids corresponding to Tyr89-Gly265 of mature human enzyme; purchased Chemicon International, Inc. CC1041

recombinant human MMP-2 = biological target: T6, recombinant human MMP-2 (Homo sapiens, UniProt P08253); experiment: In vitro fluorescence assay of MMP-2 activity
T6 sequence (P08253 110-660): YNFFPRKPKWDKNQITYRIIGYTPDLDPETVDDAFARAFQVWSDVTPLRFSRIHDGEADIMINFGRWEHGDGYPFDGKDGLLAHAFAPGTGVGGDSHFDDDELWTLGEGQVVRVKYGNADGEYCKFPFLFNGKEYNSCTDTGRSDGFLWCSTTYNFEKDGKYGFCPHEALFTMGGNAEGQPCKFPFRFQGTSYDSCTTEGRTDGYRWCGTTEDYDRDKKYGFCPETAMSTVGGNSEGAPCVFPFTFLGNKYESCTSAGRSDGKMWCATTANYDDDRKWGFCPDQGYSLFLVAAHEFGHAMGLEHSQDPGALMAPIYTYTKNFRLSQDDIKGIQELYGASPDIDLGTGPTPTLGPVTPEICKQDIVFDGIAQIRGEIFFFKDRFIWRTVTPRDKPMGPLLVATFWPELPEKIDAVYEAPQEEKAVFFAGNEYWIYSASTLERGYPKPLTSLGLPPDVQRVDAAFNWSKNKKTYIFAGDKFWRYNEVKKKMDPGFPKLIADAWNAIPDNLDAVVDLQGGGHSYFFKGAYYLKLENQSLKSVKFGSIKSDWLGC

[5] = test system: bovine articular cartilage treated with Interleukin 1 alpha (IL-1α); experiment: Bovine articular cartilage explant cultures: inhibition of degradation of proteoglycan; assay type: cell-based; details: inhibitory effect expressed as percentage, concentration not printed
Source text: This in vitro procedure was used to evaluate the effect and relative potencies of small molecule compounds to inhibit the degradation of proteoglycan in articular cartilage treated with Interleukin 1 alpha (IL-1α). Treatment of articular cartilage with IL 1α induces expression of a cascade of enzymes that initiates cartilage matrix degradation. This assay was utilized to select small molecule compounds that inhibit the enzyme activity and protects cartilage matrix degradation.
Articular cartilage: bovine metacarpal joints were disinfected with 10% Wescodyne followed by 70% ethanol. 6 mm articular cartilage discs were prepared and rinsed once in PBS and medium, respectively. The discs were cultured in a stirring flask with serum-free medium for 5 days for equilibrium with one medium change. Small molecule compounds: stock solutions of test small molecule compounds (usually at 5 mg/ml) were prepared in DMSO. Working solutions were diluted with DMSO and generally ranged from 0.1 μg/ml to 10 ug/ml. The DMSO stocks were stored at […]. Articular cartilage explant culture medium: DMEM, 2 mM glutamax, 100 U/ml of antibiotic and antimycotic, 50 μg/ml ascorbate and 10 mM Hepes (pH-7.0). Proteoglycan content-Dimethyl methylene blue (DMMB) solution: […] DMMB, 10 ml 100% ethanol, 29.5 ml of 1M NaOH, 3.5 ml of 98% formic acid and water to 1 L. Chondroitin sulphate sodium salt: 1.56-200 ug/ml serial dilutions.
For the explant culture, cartilage discs were cultured in serum-free medium for 48 h or more. Discs were weighed and transferred to a 96-well plate, 1 disc per-well. 0.2 ml of medium containing 5 ng/ml of IL-1 and different concentrations of compounds were added to each well, with 3 wells allocated for each treatment. The medium was collected at days 1, 2, & 3 and replaced accordingly.
For the DMMB assay, conditioned medium (CM) samples were diluted with medium. 10 ul of each standard or diluted sample was added in duplicate into a 96-well-plate and 200 μl of DMMB solution was added into each well. Absorbance at 520 nm was measured for each well. Proteoglycan contents in CM were calculated daily.
The proteoglycan contents are expressed as ug per mg of cartilage. The inhibitory effect of the compounds is expressed as percentage. (See, Tortorella, M. D. et al., Science 1999, 284, 1664-1666).

[6] = Table 2, nM printed in one cell only
[7] = Table 1, first of two columns headed bovine
[8] = Table 1, second of two columns headed bovine

Compound: O=C(O)CC[C@H](NC(=O)c1ccc(-c2ccccc2)cc1)C(=O)NCc1cccc(-c2ccccn2)c1 [Example 10Q, N^2-(biphenyl-4-ylcarbonyl)-N^1-(3-pyridin-2-ylbenzyl)-L-α-glutamine]
- IC50 ([1]; Table 1): 3 µM
- IC50 ([2]; Table 1, unit inferred): ~50000 nM
- MMP-1 (MMP-1): no inh
- IC50 ([3]; Table 1): 0.098 µM
- IC50 [4]: > 50 µM

Compound: COc1cc(COc2ccc(-c3ccc(C(=O)N[C@@H](CCC(=O)O)C(=O)NCc4cc(OC)c(OC)c(OC)c4)cc3)cc2)cc(OC)c1 [Example 18, N^2-({4′-[(3,5-dimethoxybenzyl)oxy]biphenyl-4-yl}carbonyl)-N-(3,4,5-trimethoxybenzyl)-L-α-glutamine]
- IC50 ([1]; Table 2): 0.05 µM
- IC50 [2, 6]: ~1600 nM
- IC50 ([3]; Table 2): 0.049 µM

Compound: CC(C)(Cc1ccc(F)cc1)NC(=O)[C@H](CCC(=O)O)NC(=O)c1ccc2c(c1)Cc1ccccc1-2 [Example 8ZZZZZ, N^2-(9H-fluoren-2-ylcarbonyl)-N^1-[2-(4-fluorophenyl)-1,1-dimethylethyl]-L-α-glutamine]
- IC50 ([1]; Table 2): 0.063 µM
- IC50 [2, 6]: > 100000 nM
- IC50 ([3]; Table 2): < 0.03 µM

Compound: CC(C)(C)NC(=O)[C@H](CCC(=O)O)NC(=O)c1ccc(-c2ccccc2)cc1 [Example 8SSS, N^2-(biphenyl-4-ylcarbonyl)-N^1-(tert-butyl)-L-α-glutamine]
- IC50 ([1]; Table 1): 0.47 µM
- IC50 ([2]; Table 1, unit inferred): > 50000 nM
- IC50 (recombinant human MMP-2): 10.3 µM
- IC50 ([3]; Table 1): 0.064 µM

Compound: CCCNC(=O)[C@H](CCC(=O)O)NC(=O)c1ccc2c(c1)Cc1ccccc1-2 [Example 8FFFFF, N^2-(9H-fluoren-2-ylcarbonyl)-N^1-propyl-L-α-glutamine]
- IC50 ([1]; Table 2): 0.71 µM
- IC50 [2, 6]: > 100000 nM
- IC50 ([3]; Table 2): 0.092 µM

Compound: O=C(O)CC[C@H](NC(=O)c1ccc(-c2ccccc2)cc1)C(=O)NCCCCc1ccccc1 [Example 8II, N^2-(1,1′-biphenyl-4-ylcarbonyl)-N^1-(4-phenylbutyl)-L-α-glutamine]
- bovine [5, 7]: 75%
- bovine [5, 8]: 40%
- Ki ([3]; Table 1): 0.039 µM
- IC50 ([3]; Table 1): 0.044 µM

Compound: O=C(O)CC[C@H](NC(=O)c1ccc(-c2ccccc2)cc1)C(=O)NCc1cccc(OC(F)(F)F)c1 [Example 8U, N^2-(1,1′-biphenyl-4-ylcarbonyl)-N^1-[3-(trifluoromethoxy)benzyl]-L-α-glutamine]
- bovine [5, 7]: 63%
- bovine [5, 8]: 26%
- IC50 ([3]; Table 1): 0.2 µM

Compound: COc1cc(CNC(=O)[C@H](CCC(=O)O)NC(=O)c2ccc(-c3ccc(C)c(F)c3)cc2)cc(OC)c1OC [Example 17R, N^2-[(3′-fluoro-4′-methylbiphenyl-4-yl)carbonyl]-N-(3,4,5-trimethoxybenzyl)-L-α-glutamine]
- IC50 ([1]; Table 2): 0.142 µM
- IC50 [2, 6]: 6000 nM
- IC50 ([3]; Table 2): 0.073 µM

Compound: COc1cccc(-c2ccc(C(=O)N[C@@H](CCC(=O)O)C(=O)NC(C)(C)Cc3ccccc3)cc2)c1 [Example 17I, N-(1,1-dimethyl-2-phenylethyl)-N^2-[(3′-methoxybiphenyl-4-yl)carbonyl]-L-α-glutamine]
- IC50 ([1]; Table 2): 0.217 µM
- IC50 [2, 6]: ~100000 nM
- IC50 ([3]; Table 2): < 0.03 µM

Compound: O=C(O)CC[C@H](NC(=O)c1ccc(-c2ccccc2)cc1)C(=O)NCC1CC1 [Example 8CCC, N^2-(1,1′-biphenyl-4-ylcarbonyl)-N^1-(cyclopropylmethyl)-L-α-glutamine]
- bovine [5, 7]: 74%
- bovine [5, 8]: 26%
- IC50 ([3]; Table 1): 0.1 µM

Compound: O=C(O)CC[C@H](NC(=O)c1ccc(-c2ccccc2)cc1)C(=O)NC1c2ccccc2-c2ccccc21 [Example 8YYYYY, N^2-(biphenyl-4-ylcarbonyl)-N^1-9H-fluoren-9-yl-L-α-glutamine]
- IC50 ([1]; Table 2): 2.8 µM
- IC50 [2, 6]: ~20000 nM
- IC50 ([3]; Table 2): 0.087 µM

Compound: O=C(O)CC[C@H](NC(=O)c1ccc(-c2ccccc2)cc1)C(=O)NCCCc1ccccc1 [Example 8FF, N^2-(1,1′-biphenyl-4-ylcarbonyl)-N^1-(3-phenylpropyl)-L-α-glutamine]
- bovine [5, 7]: 86%
- bovine [5, 8]: 50%
- Ki ([3]; Table 1): 0.028 µM
- IC50 ([3]; Table 1): 0.026 µM

Compound: O=C(O)CC[C@H](NC(=O)c1ccc(-c2ccccc2)cc1)C(=O)NCc1ccc(I)cc1 [Example 8LL, N^2-(1,1′-biphenyl-4-ylcarbonyl)-N^1-(4-iodobenzyl)-L-α-glutamine]
- IC50 ([1]; Table 1): 0.99 µM
- bovine [5, 7]: 40%
- bovine [5, 8]: 0%
- IC50 ([2]; Table 1, unit inferred): 24000 nM
- IC50 (recombinant human MMP-2): 50 µM
- IC50 ([3]; Table 1): 0.055 µM

Compound: COc1cc(CNC(=O)C(CCC(=O)O)NC(=O)c2ccc(-c3ccc4c(c3)OCO4)cc2)cc(OC)c1OC (centres unmarked) [Example 17N, 4-(4-Benzo[1,3]dioxol-5-yl-benzoylamino)-4-(3,4,5-trimethoxy-benzylcarbamoyl)-butyric acid]
- IC50 ([1]; Table 2): 0.042 µM
- IC50 [2, 6]: 11200 nM
- IC50 ([3]; Table 2): 0.04 µM

From US7998965B2, “Glutamate aggrecanase inhibitors” (Wyeth LLC, priority 2005, dated 2011)
